By EC50 is commonly meant the midpoint of the concentration-response curve.

Each structure is given as a SMILES string. Converted amounts (≈) assume the structure as drawn.

These results are taken from US9266842B2, “Anti-malarial agents” (UNIVERSITY OF CAPE TOWN, priority 2012, dated 2016).

One assay concerns P. falciparum NF54. Put plainly: Anti-malarial in vitro efficacy, assay 1, P. falciparum NF54. It counts as cell-based. The settings on record: Plasmodium falciparum, strain NF54. The protocol: (§1) The ability of aminopyrazine derivatives according to the invention to kill P. falciparum parasites and/or to inhibit its proliferation is tested as follows:
(§2) The protocol used was as described in the supplemental material to Fiddock et al., 2004, Nature Reviews Drug Discovery, (3), p 509.
(§3) EC50s (ng/ml) are reported in Table 3 below against different strains of P. falciparum K1, NF54 (assay 1).

The test system of another assay is P. falciparum K1. Put plainly: Anti-malarial in vitro efficacy, assay 1, P. falciparum K1. The settings on record: Plasmodium falciparum, strain K1. It is filed as cell-based. The protocol: as §1, §2, §3
For the next assay, the system named is parasitemia. Put plainly: Anti-malarial in vivo efficacy, inhibition of parasitemia after 4 daily oral doses. The settings on record: for inhibition in vivo at 3 mg/kg: read-out: percentages of inhibition of parasitemia, 3 mg/kg po. The source says:
The ability of aminopyrazine derivatives according to the invention to show antimalarial efficacy in vivo can be tested by using the protocols described in the supplemental material to Fidock et al., 2004, Nature Reviews Drug Discovery, (3), p 509.

`Nc1ncc(-c2ccc(C(=O)N3CCC(O)C3)cc2)nc1-c1ccc(C(F)(F)F)cc1` (stereo not shown) [Compound 21, (4-(5-amino-6-(4-(trifluoromethyl)phenyl)pyrazin-2-yl)phenyl)(3-hydroxypyrrolidin-1-yl)methanone]: the figures for the concentration giving a half-maximal response (EC50) in the assay with P. falciparum NF54 and with P. falciparum K1 were 0.0041 µg/mL (≈ 0.00957 µM) and 0.0029 µg/mL (≈ 0.00677 µM), respectively. In the assay with parasitemia, the inhibition in vivo at 3 mg/kg stood at 99.6%.

In the case of `NC(=O)c1ccc(-c2cnc(N)c(-c3ccc(C(F)(F)F)c(F)c3)n2)cc1` [Compound 13, 4-(5-amino-6-(3-fluoro-4-(trifluoro-methyl)phenyl)pyrazin-2-yl) benzamide], the concentration for a half-maximal effect (EC50) in the assay with P. falciparum NF54 and in the assay with P. falciparum K1 was 0.018 µg/mL (≈ 0.0478 µM) in each case. The inhibition in vivo at 3 mg/kg in the assay with parasitemia is 99.9%. In addition, the inhibition in vivo at 10 mg/kg in the assay with parasitemia (read-out: percentages of inhibition of parasitemia, 10 mg/kg po) was 99.9%.
